Measurements from ChEMBL document CHEMBL1125546, “Novel 5-HT3 antagonists. Isoquinolinones and 3-aryl-2-pyridones” (J Med Chem, 1992).

Tests used:
Canis familiaris [1] = experiment: Compound was evaluated for protection against cisplatin-induced emesis by measuring number of retches in dogs administered intravenously at 0.03 mg/kg; assay type: functional, Canis lupus familiaris; settings: route intravenous
Canis familiaris [2] = experiment: Compound was evaluated for protection against cisplatin-induced emesis by measuring number of emetic episodes in dogs administered perorally at 0.3 mg/kg; assay type: functional, Canis lupus familiaris; settings: route oral
Canis familiaris [3] = experiment: Compound was evaluated for protection against cisplatin-induced emesis by measuring number of emetic episodes in dogs administered perorally at 1.0 mg/kg; assay type: functional, Canis lupus familiaris; settings: route oral
Canis familiaris [4] = experiment: No. of emetic episodes in dogs when administered perorally at 3.0 mg/kg; assay type: functional, Canis lupus familiaris; settings: route oral
Canis familiaris [5] = experiment: Compound was evaluated for protection against cisplatin-induced emesis by measuring number of retches in dogs administered intravenously at 0.1 mg/kg.; assay type: functional, Canis lupus familiaris; settings: route intravenous
Canis familiaris [6] = experiment: Compound was evaluated for protection against cisplatin-induced emesis by measuring number of retches in dogs administered perorally at 0.3 mg/kg; assay type: functional, Canis lupus familiaris; settings: route oral
Canis familiaris [7] = experiment: Compound was evaluated for protection against cisplatin-induced emesis by measuring number of retches in dogs administered perorally at 1.0 mg/kg; assay type: functional, Canis lupus familiaris; settings: route oral
Canis familiaris [8] = experiment: Compound was evaluated for protection against cisplatin-induced emesis by measuring number of retches in dogs administered perorally at 3.0 mg/kg; assay type: functional, Canis lupus familiaris; settings: route oral
Canis familiaris [9] = experiment: Compound was evaluated for protection against cisplatin-induced emesis by measuring number of retches in dogs administered intravenously at 0.3 mg/kg; assay type: functional, Canis lupus familiaris; settings: route intravenous
Canis familiaris [10] = experiment: Compound was evaluated for protection against cisplatin-induced emesis by measuring number of emetic episodes in dogs administered intravenously at 0.3 mg/kg; assay type: functional, Canis lupus familiaris; settings: route intravenous
Canis familiaris [11] = experiment: Compound was evaluated for protection against cisplatin-induced emesis by measuring number of emetic episodes in dogs administered intravenously at 0.03 mg/kg; assay type: functional, Canis lupus familiaris; settings: route intravenous
Canis familiaris [12] = experiment: Compound was evaluated for protection against cisplatin-induced emesis by measuring number of emetic episodes in dogs administered intravenously at 0.1 mg/kg; assay type: functional, Canis lupus familiaris; settings: route intravenous
[13] = Compound was evaluated for protection against cisplatin-induced emesis by measuring number of retches in ferrets administered perorally at 0.1 mg/kg; assay type: functional, Mustela putorius furo; settings: route oral
[14] = Compound was evaluated for protection against cisplatin-induced emesis by measuring number of retches in ferrets administered perorally at 0.3 mg/kg; assay type: functional, Mustela putorius furo; settings: route oral
[15] = Compound was evaluated for protection against cisplatin-induced emesis by measuring number of retches in ferrets administered perorally at 1.0 mg/kg; assay type: functional, Mustela putorius furo; settings: route oral
[16] = Compound was evaluated for number of emetic episodes in ferrets administered intravenously at 0.1 mg/kg; assay type: functional, Mustela putorius furo; settings: route intravenous
[17] = Compound was evaluated for number of emetic episodes in ferrets administered intravenously at 0.3 mg/kg; assay type: functional, Mustela putorius furo; settings: route intravenous
[18] = Compound was evaluated for number of emetic episodes in ferrets administered intravenously at 1.0 mg/kg; assay type: functional, Mustela putorius furo; settings: route intravenous
Mustela putorius furo [19] = experiment: Compound was evaluated for number of emetic episodes in ferrets administered perorally at 0.1 mg/kg; assay type: functional; settings: route oral
Mustela putorius furo [20] = experiment: Compound was evaluated for number of emetic episodes in ferrets administered perorally at 0.3 mg/kg; assay type: functional; settings: route oral
Mustela putorius furo [21] = experiment: Compound was evaluated for number of emetic episodes in ferrets administered perorally at 1.0 mg/kg; assay type: functional; settings: route oral
Rattus norvegicus = experiment: Inhibitory activity against Bezold-jarisch functional assay, inducing a transient bradycardia upon intravenous administration of 5-hydroxytryptamine-(10 ug/kg) in anesthetized rats.; settings: read-out: ID50 (the source's name)
Mus musculus = experiment: Acute lethal toxicity in mouse at 8.4 mg/kg when administered intravenously; value = 5/10; assay type: organism-based; parameters: dose 8.4 mg/kg, route intravenous; settings: in vivo, iv

Cc1nccn1CC1CCc2c(c3ccccc3n2C)C1=O (stereo unspecified) [ONDANSETRON]
No. of retches (Canis familiaris [1]): 118.8
No. of emetic episodes (Canis familiaris [2]): 9
No. of emetic episodes (Canis familiaris [3]): 2.8
No. of emetic episodes (Canis familiaris [4]): 2
No. of retches (Canis familiaris [5]): 9
No. of retches (Canis familiaris [6]): 112.8
No. of retches (Canis familiaris [7]): 29.8
No. of retches (Canis familiaris [8]): 22.8
No. of retches (Canis familiaris [9]): 35.4
No. of emetic episodes (Canis familiaris [10]): 4.1
No. of emetic episodes (Canis familiaris [11]): 10.5
No. of emetic episodes (Canis familiaris [12]): 2.2
No. of retches [13]: 125.3
No. of retches [14]: 84.8
No. of retches [15]: 39.5
No. of emetic episodes [16]: 6.3
No. of retches [16]: 114
No. of emetic episodes [17]: 3.5
No. of retches [17]: 42.5
No. of emetic episodes [18]: 0
No. of retches [18]: 2.5
No. of emetic episodes (Mustela putorius furo [19]): 8.5
No. of emetic episodes (Mustela putorius furo [20]): 6.3
No. of emetic episodes (Mustela putorius furo [21]): 2.3
ED50 (Rattus norvegicus): 0.86 µg/kg
Acute lethal toxicity (Mus musculus): Partially active
